Data published in patent US12552795B2, “Pyrrolotriazine derivatives for treating kit-and PDGFRA-mediated diseases” (Blueprint Medicines Corporation, priority 2019, dated 2026).

Columns and labels:
PDGFRα D842V = PDGFRα D842V (Homo sapiens (Human), UniProt P16234, D842V); assay: PDGFRα D842V biochemical enzymatic activity assay (EZReader 2 mobility shift); conditions: ATP at APPKM (25 μM), 90 minutes
From the text: PDGFRα and KIT enzymatic activity was monitored using the Perkin Elmer electrophoretic mobility shift technology platform, the EZReader 2.
Within the linear, steady-state phase of the kinase enzymatic reaction, the mixed pool of phosphorylated (product) and non-phosphorylated (substrate) peptides was passed through the microfluidic system of the PerkinElmer EZ Reader 2, under an applied electric potential difference. The presence of the phosphate group on the product peptide provided a difference in mass and charge between that of the substrate peptide, resulting in a separation of the substrate and product pools in the sample (Perrin et al., Expert Opin Drug Discovery 2010, January 5(1):51-63).
As the product and substrate peptide mixture passes the lasers within the instrument, these pools are detected (λex=488 nm, λem=568 nm) and resolved as separate peaks. The ratio between these peaks reflects the activity of the compound at that concentration, in that well, under those conditions.
Inhibition of KIT (D816V) PDGFRα (D842V) Mutant Biochemical Enzymatic Activity
All test articles were dissolved in 100% DMSO at a stock concentration of 10 mM. A 100×, 10-point, 4-fold serial dilution of all test compounds was created in 100% DMSO, starting at a relevant concentration, usually 1 mM. A volume of 0.130 μL of each concentration was transferred to the relevant well of a 384-well assay plate (Greiner 781 201) using a TTPLabtech Mosquito nano-liter dispenser. Using the Multidrop, the remaining constituents of the reaction were then added to the 0.130 μL of compound as follows:
The reaction was stopped by the addition of 70 μl of Stop buffer (100 mM HEPES pH 7.5, 0.015% Brij 35, 35 mM EDTA and 0.2% of Coating Reagent 3, Caliper Lifesciences). The plate was read on a Caliper EZReader 2.

[1] = Brain penetration in rats, 24 h IV infusion, brain to plasma ratios; assay type: in vivo, Sprague-Dawley rats
From the text: To understand the brain penetration, brain to plasma ratios of the compounds were obtained in Sprague-Dawley (SD) rats. In vivo equilibrium distribution between blood and brain in preclinical species such as rats is a commonly used parameter to evaluate brain penetration. Kp,brain is the ratio of concentrations in brain and blood (Cbrain/Cplasma). The compound's passive diffusion characteristics, its affinity for membrane transporters at the blood-brain barrier (BBB), and the relative drug binding affinity differences between the plasma proteins and brain tissue influence the Kp,brain.
The animals received IV infusion of 1 mg/kg/hr of the compound over 24 hours via jugular vein cannulation. At 24 hours, blood was collected via tail vein bleeding or cardiac puncture (under anesthesia) and centrifuged to obtain plasma samples. Brain tissues were collected and homogenized with phosphate-buffered saline (PBS). The concentrations of the compounds were obtained in the plasma and brain homogenates by LC-MS/MS analysis.

Sequence of PDGFRα D842V (P16234 24-1089 D842V): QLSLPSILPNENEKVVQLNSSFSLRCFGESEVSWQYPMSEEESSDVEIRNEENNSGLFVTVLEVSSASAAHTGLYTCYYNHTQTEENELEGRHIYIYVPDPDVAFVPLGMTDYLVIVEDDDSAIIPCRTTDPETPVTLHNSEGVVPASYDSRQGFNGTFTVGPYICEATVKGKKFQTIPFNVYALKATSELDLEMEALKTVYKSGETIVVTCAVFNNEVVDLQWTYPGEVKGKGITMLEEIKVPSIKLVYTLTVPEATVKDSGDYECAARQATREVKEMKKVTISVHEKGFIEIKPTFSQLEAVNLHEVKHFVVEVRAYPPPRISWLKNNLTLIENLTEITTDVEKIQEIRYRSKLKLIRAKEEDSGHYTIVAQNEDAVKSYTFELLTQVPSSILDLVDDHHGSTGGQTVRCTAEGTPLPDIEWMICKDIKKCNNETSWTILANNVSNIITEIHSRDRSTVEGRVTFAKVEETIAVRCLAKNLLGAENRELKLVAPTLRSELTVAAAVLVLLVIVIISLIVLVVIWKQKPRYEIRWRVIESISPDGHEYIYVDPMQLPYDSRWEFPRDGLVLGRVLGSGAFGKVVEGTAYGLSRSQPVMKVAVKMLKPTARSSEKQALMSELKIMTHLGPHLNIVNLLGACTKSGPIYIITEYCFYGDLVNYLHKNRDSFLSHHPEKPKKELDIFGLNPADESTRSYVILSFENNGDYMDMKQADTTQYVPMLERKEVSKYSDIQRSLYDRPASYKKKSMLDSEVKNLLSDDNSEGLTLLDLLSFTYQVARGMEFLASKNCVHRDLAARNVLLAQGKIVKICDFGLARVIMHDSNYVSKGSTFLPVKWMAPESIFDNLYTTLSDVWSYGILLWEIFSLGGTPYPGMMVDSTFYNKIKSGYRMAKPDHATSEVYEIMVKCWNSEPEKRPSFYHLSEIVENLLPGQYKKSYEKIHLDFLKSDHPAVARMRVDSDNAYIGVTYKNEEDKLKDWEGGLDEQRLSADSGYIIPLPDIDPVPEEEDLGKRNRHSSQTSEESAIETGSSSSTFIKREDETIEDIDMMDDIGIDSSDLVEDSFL

Row | IC50 (PDGFRα D842V) | SMILES | other results
1 | < 0.3 nM | C[C@@H](CO)n1cc(-c2cc3c(N4CCN(c5ncc([C@@](C)(N)c6ccc(F)cc6)cn5)CC4)ncnn3c2)cn1 [Compound 6, (S)-2-(4-(4-(4-(5-((S)-1-amino-1-(4-fluorophenyl)ethyl)pyrimidin-2-yl)piperazin-1-yl)pyrrolo[2,1-f][1,2,4]triazin-6-yl)-1H-pyrazol-1-yl)propan-1-ol] | 
2 | < 0.3 nM | C[C@](N)(c1ccc(F)cc1)c1cnc(N2CCN(c3ncnn4cc(-c5cnn(CCO)c5)cc34)CC2)nc1 [Compound 4, (S)-2-(4-(4-(4-(5-(1-Amino-1-(4-fluorophenyl)ethyl)pyrimidin-2-yl)piperazin-1-yl)pyrrolo[2,1-f][1,2,4]triazin-6-yl)-1H-pyrazol-1-yl)ethanol] | 
3 |  | C[C@](N)(c1ccc(F)cc1)c1cnc(N2CCN(c3ncnn4cc(-c5cnn([C@H]6C[C@@H](O)C6)c5)cc34)CC2)nc1 [Compound 10, cis-3-(4-(4-(4-(5-((S)-1-Amino-1-(4-fluorophenyl)ethyl)pyrimidin-2-yl)piperazin-1-yl)pyrrolo[2,1-f][1,2,4]triazin-6-yl)-1H-pyrazol-1-yl)cyclobutanol] | Rat Kp ([1]; rat, methods of Example 4): < 0.39
4 | < 0.3 nM | C[C@@H](O)Cn1cc(-c2cc3c(N4CCN(c5ncc([C@@](C)(N)c6ccc(F)cc6)cn5)CC4)ncnn3c2)cn1 [Compound 3, (R)1-{4-[4-(4-{5-[(S)-1-Amino-1-(4-fluoro-phenyl)-ethyl]-pyrimidin-2-yl}-piperazin-1-yl)-pyrrolo[2,1-f][1,2,4]triazin-6-yl]-pyrazol-1-yl}-propan-2-ol] | 
5 | < 0.3 nM | CC(C)(O)Cn1cc(-c2cc3c(N4CCN(c5ncc([C@@](C)(N)c6ccc(F)cc6)cn5)CC4)ncnn3c2)cn1 [Compound 1, (S)-1-(4-(4-(4-(5-(1-Amino-1-(4-fluorophenyl)ethyl)pyrimidin-2-yl)piperazin-1-yl)pyrrolo[2,1-f][1,2,4]triazin-6-yl)-1H-pyrazol-1-yl)-2-methylpropan-2-ol] | 
6 |  | CCn1cc(-c2cc3c(N4CCN(c5ncc([C@@](C)(N)c6ccc(F)cc6)cn5)CC4)ncnn3c2)cn1 [Compound 63, reference compound] | Kp, brain ([1]; Mean of 3 rats, IV infusion 1 mg/kg/hr over 24 hours): 1.75
7 | < 0.3 nM | C[C@H](CO)n1cc(-c2cc3c(N4CCN(c5ncc([C@@](C)(N)c6ccc(F)cc6)cn5)CC4)ncnn3c2)cn1 [Compound 5, (R)-2-(4-(4-(4-(5-((S)-1-Amino-1-(4-fluorophenyl)ethyl)pyrimidin-2-yl)piperazin-1-yl)pyrrolo[2,1-f][1,2,4]triazin-6-yl)-1H-pyrazol-1-yl)propan-1-ol] | 
8 | < 0.3 nM | CC(C)(CO)n1cc(-c2cc3c(N4CCN(c5ncc([C@@](C)(N)c6ccc(F)cc6)cn5)CC4)ncnn3c2)cn1 [Compound 2, (S)-2-(4-(4-(4-(5-(1-amino-1-(4-fluorophenyl)ethyl)pyrimidin-2-yl)piperazin-1-yl)pyrrolo[2,1-f][1,2,4]triazin-6-yl)-1H-pyrazol-1-yl)-2-methylpropan-1-ol] | 
